Test results as given in patent US11945806B2, “Stabilization of amyloidogenic immunoglobulin light chains” (The Scripps Research Institute, priority 2019, dated 2024).

What follows are molecules tested against WIL-FL (Homo sapiens, UniProt P01721) (assay: Unlabeled LC Protease Sensitivity Assay (proteinase K)). Settings: small molecule 10 μM, WIL-FL 5 μM, proteinase K 50 nM, 2 hours at 37° C.
Format: biochemical
Procedure: Unlabeled LC Protease Sensitivity Assay. WIL-FL (5 μM) in phosphate-buffered saline (PBS, pH 7.4)+0.02% Pluronic F-127 was incubated with proteinase K (50 nM) with small molecule (10 μM) in 1% DMSO vehicle, or vehicle alone. After 2 hours at 37° C., reactions were quenched with 2 mM phenylmethyl sulfonyl fluoride in methanol and centrifuged at 14,000 rpm for 2 minutes. Remaining WIL-FL was quantified by injecting 10 μL of the supernatant into a Waters Acquity H-Class Bio-UPLC (ultra performance liquid chromatography) instrument equipped with a BEH200 analytical size-exclusion column (1.7 μm, 4.6×150 mm) under isocratic conditions (0.2 mL/min, PBS+1 mM EDTA, 2400 psi backpressure, 15 min), monitoring absorbance at 280 nm. Activity of each compound is given as fold protection from protease=(A_compound−A_vehicle)/(A_no_protease−A_vehicle), where each “A” corresponds to peak integration of the respective treatment.

Question: How did the “Protection (fold protection of LC from protease)” value turn out when `CCN(CC)c1ccc2c(C)c(CCC(=O)NCCc3cccc(F)c3)c(=O)oc2c1` [Compound 72] was run?
Answer: A (A < 0.3))

Question: Which “Protection (fold protection of LC from protease)” value does the source give for `CCN(CC)c1ccc2c(C)c(CCC(=O)NCCc3ccc(F)cc3)c(=O)oc2c1` [Compound 73] here?
Answer: A (A < 0.3))

Question: How did the “Protection (fold protection of LC from protease)” value turn out when `CCN(CC)c1ccc2c(C)c(CCC(=O)NCCc3ccncc3)c(=O)oc2c1` [Compound 76] was run?
Answer: A (A < 0.3))

Question: Which “Protection (fold protection of LC from protease)” value does the source give for `CCN(CC)c1ccc2c(C)c(CCOC(=O)NCc3ccccc3)c(=O)oc2c1` [Compound 78, 2-(7-(diethylamino)-4-methyl-2-oxo-2H-chromen-3-yl)ethyl benzylcarbamate] here?
Answer: A (A < 0.3))

Question: With `CCN(CC)c1ccc2c(C)c(CCOC(=O)NC)c(=O)oc2c1` [Compound 79, 2-(7-(diethylamino)-4-methyl-2-oxo-2H-chromen-3-yl)ethyl methylcarbamate] as the molecule, how does the “Protection (fold protection of LC from protease)” value read?
Answer: A (A < 0.3))

Question: Which “Protection (fold protection of LC from protease)” value does the source give for `CCN(CC)c1ccc2c(C)c(CCOC(=O)NCCc3ccccc3)c(=O)oc2c1` [Compound 80, 2-(7-(diethylamino)-4-methyl-2-oxo-2H-chromen-3-yl)ethyl phenethylcarbamate] here?
Answer: A (A < 0.3))

Question: How did the “Protection (fold protection of LC from protease)” value turn out when `CCN(CC)c1ccc2c(C)c(CCOC(=O)NCCCc3ccccc3)c(=O)oc2c1` [Compound 81, 2-(7-(diethylamino)-4-methyl-2-oxo-2H-chromen-3-yl)ethyl (3-phenylpropyl)carbamate] was run?
Answer: A (A < 0.3))

Question: With `CCN(CC)c1ccc2c(C)c(CCOC(=O)NCCc3ccccn3)c(=O)oc2c1` [Compound 82, 2-(7-(diethylamino)-4-methyl-2-oxo-2H-chromen-3-yl)ethyl (2-(pyridin-2-yl)ethyl)carbamate] as the molecule, how does the “Protection (fold protection of LC from protease)” value read?
Answer: A (A < 0.3))

Question: For `CCN(CC)c1ccc2c(C)c(CCOC(=O)NCCc3cccnc3)c(=O)oc2c1` [Compound 83, 2-(7-(diethylamino)-4-methyl-2-oxo-2H-chromen-3-yl)ethyl (2-(pyridin-3-yl)ethyl)carbamate], which “Protection (fold protection of LC from protease)” value is on record?
Answer: A (A < 0.3))

Question: With `CCN(CC)c1ccc2c(C)c(CCOC(=O)NCCc3ccncc3)c(=O)oc2c1` [Compound 84, 2-(7-(diethylamino)-4-methyl-2-oxo-2H-chromen-3-yl)ethyl (2-(pyridin-4-yl)ethyl)carbamate] as the molecule, how does the “Protection (fold protection of LC from protease)” value read?
Answer: A (A < 0.3))

Question: `CCN(CC)c1ccc2c(C)c(CCOC(=O)NCc3ccccn3)c(=O)oc2c1` [Compound 85, 2-(7-(diethylamino)-4-methyl-2-oxo-2H-chromen-3-yl)ethyl (pyridin-2-ylmethyl)carbamate] was tested. Which “Protection (fold protection of LC from protease)” value did it give?
Answer: B (3 ≤ B < 0.6)

Question: For `CCN(CC)c1ccc2c(C)c(CCOC(=O)NCc3ccncc3)c(=O)oc2c1` [Compound 86, 2-(7-(diethylamino)-4-methyl-2-oxo-2H-chromen-3-yl)ethyl (pyridin-4-ylmethyl)carbamate], which “Protection (fold protection of LC from protease)” value is on record?
Answer: B (3 ≤ B < 0.6)

Question: With `CCN(CC)c1ccc2c(C)c(CCOC(=O)NCc3ccco3)c(=O)oc2c1` [Compound 87, 2-(7-(diethylamino)-4-methyl-2-oxo-2H-chromen-3-yl)ethyl (furan-2-ylmethyl)carbamate] as the molecule, how does the “Protection (fold protection of LC from protease)” value read?
Answer: B (3 ≤ B < 0.6)

Question: Which “Protection (fold protection of LC from protease)” value does the source give for `CCN(CC)c1ccc2c(C)c(CCOC(=O)NCCc3cnc[nH]3)c(=O)oc2c1` [Compound 88, 2-(7-(diethylamino)-4-methyl-2-oxo-2H-chromen-3-yl)ethyl (2-(1H-imidazol-4-yl)ethyl)carbamate] here?
Answer: B (3 ≤ B < 0.6)

Question: How did the “Protection (fold protection of LC from protease)” value turn out when `CCN(CC)c1ccc2c(C)c(CCOC(=O)NCc3cccnc3)c(=O)oc2c1` [Compound 89, 2-(7-(diethylamino)-4-methyl-2-oxo-2H-chromen-3-yl)ethyl (pyridin-3-ylmethyl)carbamate] was run?
Answer: C (C ≥ 0.6)

Question: `CCN(CC)c1ccc2c(C)c(CCOC(=O)NCc3ccncn3)c(=O)oc2c1` [Compound 90, 2-(7-(diethylamino)-4-methyl-2-oxo-2H-chromen-3-yl)ethyl (pyrimidin-4-ylmethyl)carbamate] was tested. Which “Protection (fold protection of LC from protease)” value did it give?
Answer: A (A < 0.3))

Question: How did the “Protection (fold protection of LC from protease)” value turn out when `CCN(CC)c1ccc2c(C)c(CCOC(=O)NCc3cnccn3)c(=O)oc2c1` [Compound 91, 2-(7-(diethylamino)-4-methyl-2-oxo-2H-chromen-3-yl)ethyl (pyrazin-2-ylmethyl)carbamate] was run?
Answer: B (3 ≤ B < 0.6)

Question: Which “Protection (fold protection of LC from protease)” value does the source give for `CCN(CC)c1ccc2c(C)c(CCOC(=O)NCc3ccn[nH]3)c(=O)oc2c1` [Compound 92, 2-(7-(diethylamino)-4-methyl-2-oxo-2H-chromen-3-yl)ethyl ((1H-pyrazol-5-yl)methyl)carbamate] here?
Answer: B (3 ≤ B < 0.6)

Question: For `CCN(CC)c1ccc2c(C)c(CCOC(=O)NCc3ncccn3)c(=O)oc2c1` [Compound 93, 2-(7-(diethylamino)-4-methyl-2-oxo-2H-chromen-3-yl)ethyl (pyrimidin-2-ylmethyl)carbamate], which “Protection (fold protection of LC from protease)” value is on record?
Answer: B (3 ≤ B < 0.6)

Question: How did the “Protection (fold protection of LC from protease)” value turn out when `CCN(CC)c1ccc2c(C)c(CCNC(C)=O)c(=O)oc2c1` [Compound 94, N-(2-(7-(diethylamino)-4-methyl-2-oxo-2H-chromen-3-yl)ethyl)acetamide] was run?
Answer: A (A < 0.3))

Question: For `CCN(CC)c1ccc2c(C)c(CCNC(=O)CCc3ccncc3)c(=O)oc2c1` [Compound 96, N-(2-(7-(diethylamino)-4-methyl-2-oxo-2H-chromen-3-yl)ethyl)-3-(pyridin-4-yl)propanamide], which “Protection (fold protection of LC from protease)” value is on record?
Answer: A (A < 0.3))

Question: With `CCN(CC)c1ccc2c(C)c(CCOC(=O)NCc3ccc(Cl)nc3)c(=O)oc2c1` [Compound 97, 2-(7-(diethylamino)-4-methyl-2-oxo-2H-chromen-3-yl)ethyl ((6-chloropyridin-3-yl)methyl)carbamate] as the molecule, how does the “Protection (fold protection of LC from protease)” value read?
Answer: A (A < 0.3))

Question: With `CCN(CC)c1ccc2c(C)c(CCNC(=O)NCc3cccnc3)c(=O)oc2c1` [Compound 98, 1-(2-(7-(diethylamino)-4-methyl-2-oxo-2H-chromen-3-yl)ethyl)-3-(pyridin-3-ylmethyl)urea] as the molecule, how does the “Protection (fold protection of LC from protease)” value read?
Answer: C (C ≥ 0.6)

Question: With `CCN(CC)c1ccc2c(C)c(CCNC(=O)NCCc3cccnc3)c(=O)oc2c1` [Compound 99, 1-(2-(7-(diethylamino)-4-methyl-2-oxo-2H-chromen-3-yl)ethyl)-3-(2-(pyridin-3-yl)ethyl)urea] as the molecule, how does the “Protection (fold protection of LC from protease)” value read?
Answer: B (3 ≤ B < 0.6)

Question: Which “Protection (fold protection of LC from protease)” value does the source give for `CCN(CC)c1ccc2c(C)c(CCNC(=O)OCc3cccnc3)c(=O)oc2c1` [Compound 100, Pyridin-3-ylmethyl (2-(7-(diethylamino)-4-methyl-2-oxo-2H-chromen-3-yl)ethyl)carbamate] here?
Answer: A (A < 0.3))

Question: `CCN(CC)c1ccc2c(C)c(CCOC(=O)NCc3ccc(C(F)(F)F)nc3)c(=O)oc2c1` [Compound 101, 2-(7-(diethylamino)-4-methyl-2-oxo-2H-chromen-3-yl)ethyl ((6-(trifluoromethyl)pyridin-3-yl)methyl)carbamate] was tested. Which “Protection (fold protection of LC from protease)” value did it give?
Answer: A (A < 0.3))

Question: How did the “Protection (fold protection of LC from protease)” value turn out when `CCN(CC)c1ccc2c(C)c(CCOC(=O)N(C)CCc3cccnc3)c(=O)oc2c1` [Compound 102, 2-(7-(diethylamino)-4-methyl-2-oxo-2H-chromen-3-yl)ethyl methyl(2-(pyridin-3-yl)ethyl)carbamate] was run?
Answer: A (A < 0.3))

Question: Which “Protection (fold protection of LC from protease)” value does the source give for `CCN(CC)c1ccc2c(C)c(CCOC(=O)Nc3ccc(NC(C)=O)cn3)c(=O)oc2c1` [Compound 103, 2-(7-(diethylamino)-4-methyl-2-oxo-2H-chromen-3-yl)ethyl (5-acetamidopyridin-2-yl)carbamate] here?
Answer: B (3 ≤ B < 0.6)

Question: With `CCN(CC)c1ccc2c(C)c(CCOC(=O)N3CC(C(=O)OC)C3)c(=O)oc2c1` [Compound 104, 1-(2-(7-(diethylamino)-4-methyl-2-oxo-2H-chromen-3-yl)ethyl) 3-methyl azetidine-1,3-dicarboxylate] as the molecule, how does the “Protection (fold protection of LC from protease)” value read?
Answer: A (A < 0.3))

Question: `CCOC(=O)N1CCC(NC(=O)OCCc2c(C)c3ccc(N(CC)CC)cc3oc2=O)CC1` [Compound 105, Ethyl 4-(((2-(7-(diethylamino)-4-methyl-2-oxo-2H-chromen-3-yl)ethoxy)carbonyl)amino)piperidine-1-carboxylate] was tested. Which “Protection (fold protection of LC from protease)” value did it give?
Answer: B (3 ≤ B < 0.6)

Question: How did the “Protection (fold protection of LC from protease)” value turn out when `CCN(CC)c1ccc2c(C)c(CCOC(=O)N3CCC(CO)C3)c(=O)oc2c1` (stereo not shown) [Compound 106, 2-(7-(diethylamino)-4-methyl-2-oxo-2H-chromen-3-yl)ethyl 3-(hydroxymethyl)pyrrolidine-1-carboxylate] was run?
Answer: A (A < 0.3))

Question: How did the “Protection (fold protection of LC from protease)” value turn out when `CCN(CC)c1ccc2c(C)c(CCOC(=O)N3CCN(S(=O)(=O)C4CC4)CC3)c(=O)oc2c1` [Compound 107, 2-(7-(diethylamino)-4-methyl-2-oxo-2H-chromen-3-yl)ethyl 4-(cyclopropylsulfonyl)piperazine-1-carboxylate] was run?
Answer: A (A < 0.3))

Question: Which “Protection (fold protection of LC from protease)” value does the source give for `CCN(CC)c1ccc2c(C)c(CCOC(=O)N3CC(F)(F)C3)c(=O)oc2c1` [Compound 108, 2-(7-(diethylamino)-4-methyl-2-oxo-2H-chromen-3-yl)ethyl 3,3-difluoroazetidine-1-carboxylate] here?
Answer: A (A < 0.3))

Question: How did the “Protection (fold protection of LC from protease)” value turn out when `CCN(CC)c1ccc2c(C)c(CCOC(=O)N3CCN(c4cnccn4)CC3)c(=O)oc2c1` [Compound 109, 2-(7-(diethylamino)-4-methyl-2-oxo-2H-chromen-3-yl)ethyl 4-(pyrazin-2-yl)piperazine-1-carboxylate] was run?
Answer: A (A < 0.3))
